This passage reports IC50 results from patent publication US20170275270A1, “BENZYL SUBSTITUTED INDAZOLES” (Bayer Pharma Aktiengesellschaft, priority 2014, published 2017).

This assay concerns the target T1, catalytic domain of human Bub1 (amino acids 704-1085) (Homo sapiens, UniProt O43683).
T1 construct: catalytic domain of human Bub1 (amino acids 704-1085); His6 (N); made in house; host or cells: Hi5 insect cells
Kind of assay: Bub1 kinase assay (TR-FRET). The class given is biochemical. The method, then: To this end, 100-fold concentrated compound solutions (in DMSO) were previously prepared by serial dilution (1:3.4) of 2 mM stocks in a clear low volume 384-well source microtiter plate (Greiner Bio-One, Frickenhausen, Germany), from which 50 nL of compounds were transferred into a black low volume test microtiter plate from the same supplier. […] The resulting mixture (5 μL final volume) was incubated at 22° C. during 60 min., and the reaction was stopped by the addition of 5 μL of an aqueous EDTA-solution (50 mM EDTA, in 100 mM HEPES pH 7.5 and 0.2% (w/v) bovine serum albumin) which also contained the TR-FRET detection reagents (0.2 μM streptavidin-XL665 [Cisbio Bioassays, Codolet, France] and 1 nM anti-phosho-Serine antibody [Merck Millipore, cat. #35-001] and 0.4 nM LANCE EU-W1024 labeled anti-mouse IgG antibody [Perkin-Elmer, product no. AD0077, alternatively a Terbium-cryptate-labeled anti-mouse IgG antibody from Cisbio Bioassays can be used]). The stopped reaction mixture was further incubated 1 h at 22° C. in order to allow the formation of complexes between peptides and detection reagents. Subsequently, the amount of product was evaluated by measurement of the resonance energy transfer from the Eu-chelate-antibody complex recognizing the Phosphoserine residue to the streptavidin-XL665 bound to the biotin moiety of the peptide. […] IC50 values were calculated by fitting the normalized inhibition data to a 4-parameter logistic equation (Minimum, Maximum, IC50, Hill; Y=Max+(Min−Max)/(1+(X/IC50) Hill)).
In general terms: In TR-FRET formats the signal depends on donor and acceptor labels being close together.

Where [1] appears, read: 10 μM ATP, read-out: Biological Assay 1: Bub1 kinase assay median IC50.
Where [2] appears, read: Biological Assay 1: Bub1 kinase assay median IC50, 10 μM ATP.

Where a name gives a salt, the structure may show the parent alone. Read-outs that look alike come from different tables or passages of the source.

T1 sequence (O43683 704-1085): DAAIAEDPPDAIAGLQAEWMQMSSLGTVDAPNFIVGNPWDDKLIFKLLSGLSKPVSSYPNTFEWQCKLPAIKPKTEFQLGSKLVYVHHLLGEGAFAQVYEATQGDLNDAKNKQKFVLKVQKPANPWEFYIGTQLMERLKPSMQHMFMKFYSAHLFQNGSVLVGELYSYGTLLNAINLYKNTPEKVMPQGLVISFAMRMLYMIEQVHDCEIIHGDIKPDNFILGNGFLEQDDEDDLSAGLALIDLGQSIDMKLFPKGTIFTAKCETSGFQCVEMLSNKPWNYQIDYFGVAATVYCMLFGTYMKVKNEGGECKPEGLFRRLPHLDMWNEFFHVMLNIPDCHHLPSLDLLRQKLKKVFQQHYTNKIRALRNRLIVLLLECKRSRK

The term IC50 denotes the point on the concentration scale where inhibition reaches its midpoint. Consider `CCOc1cc(F)c(Cn2nc(-c3ncc(CCN)c(Nc4ccncc4Cl)n3)c3ccccc32)c(F)c1` [Example 2-9-21, 5-(2-aminoethyl)-N-(3-chloropyridin-4-yl)-2-[1-(4-ethoxy-2,6-difluorobenzyl)-1H-indazol-3-yl]pyrimidin-4-amine], for which the IC50 under setting [1] came out at 13 nM. On to `COCCOc1cc(F)c(Cn2nc(-c3nc(C)c(F)c(Nc4ccnc(C)n4)n3)c3ccccc32)c(F)c1` [Example 2-12-75, 2-{1-[2,6-difluoro-4-(2-methoxyethoxy)benzyl]-1H-indazol-3-yl}-5-fluoro-6-methyl-N-(2-methylpyrimidin-4-yl)pyrimidin-4-amine], for which the IC50 under setting [2] stood at 180 nM. Still for that read-out and setting: to `COCCOc1cc(F)c(Cn2nc(-c3nc4c(c(Nc5ccncn5)n3)CN(CC(F)(F)F)C4)c3ccccc32)c(F)c1` [Example 2-20-18, 2-{1-[2,6-difluoro-4-(2-methoxyethoxy)benzyl]-1H-indazol-3-yl}-N-(pyrimidin-4-yl)-6-(2,2,2-trifluoroethyl)-6,7-dihydro-5H-pyrrolo[3,4-d]pyrimidin-4-amine] belongs 28 nM; to `CCOc1cc(F)c(Cn2nc(-c3nc(CN4CCOCC4)cc(Nc4ccnc(O)c4)n3)c3ccccc32)c(F)c1` [Example 2-12-46, 4-({2-[1-(4-ethoxy-2,6-difluorobenzyl)-1H-indazol-3-yl]-6-(morpholin-4-ylmethyl)pyrimidin-4-yl}amino)pyridin-2-ol], 1100 nM; to `CCOc1cc(F)c(Cn2nc(-c3nc(Nc4ccnc(NC(C)=O)c4)cc([C@H](C)O)n3)c3ccccc32)c(F)c1` [Example 2-4-9, N-[4-({2-[1-(4-ethoxy-2,6-difluorobenzyl)-1H-indazol-3-yl]-6-[(1S)-1-hydroxyethyl]pyrimidin-4-yl}amino)pyridin-2-yl]acetamide], 11 nM. Still for that read-out and setting: the same measure for `CCOc1cc(F)c(Cn2nc(-c3ncc(CS(C)(=O)=O)c(Nc4ccncc4)n3)c3ccccc32)c(F)c1` [Example 2-3-3, 2-[1-(4-ethoxy-2,6-difluorobenzyl)-1H-indazol-3-yl]-5-[(methylsulfonyl)methyl]-N-(pyridin-4-yl)pyrimidin-4-amine]: 8.9 nM.

Molecule `CCOc1cc(F)c(Cn2nc(-c3nc(Nc4ccnc(C)n4)cc(C4CCOCC4)n3)c3ccccc32)c(F)c1` [Example 2-12-89, 2-[1-(4-ethoxy-2,6-difluorobenzyl)-1H-indazol-3-yl]-N-(2-methylpyrimidin-4-yl)-6-(tetrahydro-2H-pyran-4-yl)pyrimidin-4-amine] registered an IC50 under setting [2] of 1100 nM. The same measure, in the same setting: the same measure for `CCOc1cc(F)c(Cn2nc(-c3nc(CN4CCOCC4)cc(Nc4ccnc(OC)c4)n3)c3ccccc32)c(F)c1` [Example 2-19-10, 2-[1-(4-ethoxy-2,6-difluorobenzyl)-1H-indazol-3-yl]-N-(2-methoxypyridin-4-yl)-6-(morpholin-4-ylmethyl)pyrimidin-4-amine]: 94 nM. The same measure, in the same setting: the same measure for `COCCOc1cc(F)c(Cn2nc(-c3ncc(C4CC4)c(Nc4ccncc4OC)n3)c3ccccc32)c(F)c1` [Example 2-2-48, 5-cyclopropyl-2-{1-[2,6-difluoro-4-(2-methoxyethoxy)benzyl]-1H-indazol-3-yl}-N-(3-methoxypyridin-4-yl)pyrimidin-4-amine]: 3.7 nM; for `COCCOc1cc(F)c(Cn2nc(-c3ncc(C4CCNCC4)c(Nc4ccnc(C)n4)n3)c3ccccc32)c(F)c1` [Example 2-17-10, 2-{1-[2,6-difluoro-4-(2-methoxyethoxy)benzyl]-1H-indazol-3-yl}-N-(2-methylpyrimidin-4-yl)-5-(piperidin-4-yl)pyrimidin-4-amine]: 85 nM.

With `COCCOc1cc(F)c(Cn2nc(-c3nc4c(c(Nc5cc(C)ncc5C)n3)CN(CC(F)(F)F)C4)c3ccccc32)c(F)c1` [Example 2-20-17, 2-{1-[2,6-difluoro-4-(2-methoxyethoxy)benzyl]-1H-indazol-3-yl}-N-(2,5-dimethylpyridin-4-yl)-6-(2,2,2-trifluoroethyl)-6,7-dihydro-5H-pyrrolo[3,4-d]pyrimidin-4-amine], the IC50 under setting [2] came to 34 nM. For the molecule `CCOc1cc(F)c(Cn2nc(-c3ncc(CCN)c(Nc4ccnc(C)n4)n3)c3ccccc32)c(F)c1` [Example 2-9-22, 5-(2-aminoethyl)-2-[1-(4-ethoxy-2,6-difluorobenzyl)-1H-indazol-3-yl]-N-(2-methylpyrimidin-4-yl)pyrimidin-4-amine, salt with hydrochloric acid (1:2)], under setting [1], the IC50 came out at 9.3 nM.

In turn, `COCCOc1cc(F)c(Cn2nc(-c3nc4c(c(Nc5ccncc5Cl)n3)CCC(C)(C)C4)c3ccccc32)c(F)c1` [Example 2-15-10, N-(3-chloropyridin-4-yl)-2-{1-[2,6-difluoro-4-(2-methoxyethoxy)benzyl]-1H-indazol-3-yl}-7,7-dimethyl-5,6,7,8-tetrahydroquinazolin-4-amine] came in with an IC50 under setting [2] of 1400 nM. In turn, `COCCOc1cc(F)c(Cn2nc(-c3nc4c(c(Nc5cc(C)ncc5C)n3)CCC4)c3ccccc32)c(F)c1` [Example 2-12-57, 2-{1-[2,6-difluoro-4-(2-methoxyethoxy)benzyl]-1H-indazol-3-yl}-N-(2,5-dimethylpyridin-4-yl)-6,7-dihydro-5H-cyclopenta[d]pyrimidin-4-amine] registered an IC50 under setting [2] of 130 nM. For `Cc1cc(Nc2nc(-c3nn(Cc4c(F)cc(O)cc4F)c4ccccc34)nc3c2CCC3)ccn1` [Example 2-6-8, 3,5-difluoro-4-[(3-{4-[(2-methylpyridin-4-yl)amino]-6,7-dihydro-5H-cyclopenta[d]pyrimidin-2-yl}-1H-indazol-1-yl)methyl]phenol], under setting [2], the IC50 was 46 nM. Same read-out and setting: to `COCCOc1cc(F)c(Cn2nc(-c3ncc(C4CCN(CC(F)(F)F)CC4)c(Nc4ccnc(NC(C)=O)c4)n3)c3ccccc32)c(F)c1` [Example 2-20-7, N-{4-[(2-{1-[2,6-difluoro-4-(2-methoxyethoxy)benzyl]-1H-indazol-3-yl}-5-[1-(2,2,2-trifluoroethyl)piperidin-4-yl]pyrimidin-4-yl)amino]pyridin-2-yl}acetamide] belongs 66 nM; to `CCOc1cc(F)c(Cn2nc(-c3nc(Nc4ccncn4)cc(-c4sc(C)nc4C)n3)c3ccccc32)c(F)c1` [Example 2-12-85, 6-(2,4-dimethyl-1,3-thiazol-5-yl)-2-[1-(4-ethoxy-2,6-difluorobenzyl)-1H-indazol-3-yl]-N-(pyrimidin-4-yl)pyrimidin-4-amine], 6000 nM. The molecule `CCOc1cc(F)c(Cn2nc(-c3nc4c(c(Nc5ccncc5)n3)CNCC4)c3ccccc32)c(F)c1` [Example 2-9-16, 2-[1-(4-ethoxy-2,6-difluorobenzyl)-1H-indazol-3-yl]-N-(pyridin-4-yl)-5,6,7,8-tetrahydro-pyrido[4,3-d]pyr-imidin-4-amine] displayed an IC50 under setting [2] of 16 nM. Still for that read-out and setting: the same measure for `COCCOc1cc(F)c(Cn2nc(-c3nc(CN4CCOCC4)cc(Nc4ccncc4Cl)n3)c3ccccc32)c(F)c1` [Example 2-12-40, N-(3-chloropyridin-4-yl)-2-{1-[2,6-difluoro-4-(2-methoxyethoxy)benzyl]-1H-indazol-3-yl}-6-(morpholin-4-ylmethyl)pyrimidin-4-amine]: 10 nM; for `COc1cnccc1Nc1nc(-c2nn(Cc3c(F)cc(OCCO)cc3F)c3ccccc23)nc2c1CCC(C)(C)C2` [Example 2-6-26, 2-{3,5-difluoro-4-[(3-{4-[(3-methoxypyridin-4-yl)amino]-7,7-dimethyl-5,6,7,8-tetrahydroquin-azolin-2-yl}-1H-indazol-1-yl)methyl]phenoxy}ethanol]: 42 nM.
